Read-outs that look alike come from different tables or passages of the source. Marks after values point to notes of the source that are not given here.
How the values were obtained:
[1] = system: isolated bladder smooth muscle; assay: Relaxing activity test against isolated bladder smooth muscle in rat; conditions: resting tension of isolated rat bladder; relaxation by 10 μM forskolin = 100%
Procedure: This method was carried out in accordance with the literature [J. Pharmacol. Exp. Ther., 293, 939 (2000)]. Each bladder was isolated from a normal Spague-Dawley rat, and a bladder section of the size of about 2×10 mm was prepared in the nutrient solution (Krebs solution [NaCl 118 mM; KCl 4.7 mM; NaH2PO4 1.1 mM; glucose 10 mM; NaHCO3 25 mM; MgCl2.7H2O 1 mM; CaCl2.2H2O 2.5 mM]) sufficiently oxygenated with 95% O2+5% CO2. The sample was suspended in a Magnus tube filled with the nutrient solution (Krebs solution) aerated with 95% O2+5% CO2 at 37° C., and stabilized under a load of 0.5 g for 60 minutes or longer. The resting tension of the bladder sample was recorded in a pen recorder through a tension transducer. The test compound was cumulatively applied about every 10 minutes. […] The test compound was dissolved in distilled water or aqueous 10% dimethylsulfoxide solution.

female Spague-Dawley rat [2] = assay: Number of voiding episodes in rat natural voiding behavior test; type: in vivo; conditions: 1 hour after administration
Procedure: This method was carried out according to the literature [Jpn. J. Pharmacol., 87, 27 (2001)]. Each female Spague-Dawley rat was placed in a urine collection cage, and an electronic balance was placed under the cage. Excreted urine was allowed to fall into a urine collection tray placed on the electronic balance, and its change in weight every 10 seconds was scaled with time through a personal computer. Not less than 0.1 g of the change in weight was regarded as indicative of urination, and the weight of 1 g was regarded as corresponding to 1 mL of urine. Drug administration was carried out subcutaneously, and the number of voiding episodes was measured for 1 hour before and after the drug administration, to observe its change (number of cases: 11 to 18/group).
Significant difference test was carried out by student's-test or williams test, wherein a significance level of less than 5% was accepted as significant (* in the table).

[3] = system: isolated bladder smooth muscle; assay: Relaxing activity against isolated bladder smooth muscle in human; conditions: relaxation by 10 μM forskolin = 100%
Procedure: This method was carried out in accordance with the literature [J. Urology, 165, 240 (2001)].
A normal part (non-cancerous part) of the bladder removed from a human male (32-72 years old) by bladder cancer surgery was used. A bladder section sizing about 3×10 mm was prepared in the nutrient solution (Krebs solution [NaCl 118 mM; KCl 4.7 mM; NaH2PO4 1.2 mM; glucose 10 mM; NaHCO3 25 mM; MgCl2.7H2O 1.2 mM; CaCl2.2H2O 2.5 mM]) sufficiently oxygenated with 95% O2+5% CO2. The sample was suspended in a Magnus tube filled with the nutrient solution (Krebs solution) aerated with 95% O2+5% CO2 at 37° C., and stabilized under a load of 0.5 g for 60 minutes or longer. The resting tension of the bladder sample was recorded in a pen recorder through a tension transducer. The test compound was cumulatively applied about every 10 minutes. The test compound was dissolved in distilled water or aqueous 10% DMSO solution (number of cases: 3 to 4/group).

[4] = biological target: T1, human adrenergic β3 receptor (Homo sapiens, UniProt P13945); assay: Agonistic activity (cAMP production) against human adrenergic β3 receptor in SK-N-MC cells; type: cell-based
T1 construct: evaluated using SK-N-MC cells in the presence of a selective adrenergic β1 receptor antagonist; endogenous in cells; host or cells: SK-N-MC cells
T1 sequence (P13945 whole entry): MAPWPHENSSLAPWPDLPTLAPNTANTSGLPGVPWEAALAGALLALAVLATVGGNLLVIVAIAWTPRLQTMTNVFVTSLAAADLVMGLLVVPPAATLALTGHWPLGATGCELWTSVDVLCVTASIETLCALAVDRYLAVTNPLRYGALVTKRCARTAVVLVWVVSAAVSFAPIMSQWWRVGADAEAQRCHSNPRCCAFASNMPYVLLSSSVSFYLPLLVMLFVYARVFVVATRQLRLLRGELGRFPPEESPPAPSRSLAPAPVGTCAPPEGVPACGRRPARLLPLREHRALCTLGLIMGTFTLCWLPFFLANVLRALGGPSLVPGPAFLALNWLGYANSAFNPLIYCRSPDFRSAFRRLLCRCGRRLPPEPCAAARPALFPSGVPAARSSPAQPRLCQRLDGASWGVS
Procedure: (§1) This method was carried out according to the literature [J. Pharmacol. Exp. Ther., 271, 1253 (1994)] or [Naunyn-Schmiedeberg's Arch. Pharmacol., 369, 151 (2004)], using the amount of the production of cAMP as an index. The agonistic activity against human adrenergic β3 receptor was evaluated using SK-N-MC cells in the presence of a selective adrenergic β1 receptor antagonist (CGP-20712A, 1 μM). Evaluation of the agonistic activities against human adrenergic β2 and β1 receptors was carried out using CHO-K1 cells forcibly-expressed each receptor. Their cells were cultured in a culture flask. In assay day, they were detached and collected with EDTA, followed by dispensing in a 384-well plate so as to attain 10,000 cells/well. The test compound of each concentration was added to each well and allowed to react in a CO2 incubator at 37° C. for 30 minutes, followed by quantification of the produced cAMP using cAMP detection kit (Perkinelmer). The logarithm of the 50% reaction concentration of each test compound was calculated taking the reaction by 100 or 300 nM Isoproterenol as 100%. The test drug was added up to 10 μM, and in cases where reaction of not less than 50% was not observed at this concentration, the result was represented as n.d. (not detected).

[5] = biological target: T2, human adrenergic β2 receptor (Homo sapiens, UniProt P07550); assay: Agonistic activity (cAMP production) against human adrenergic β2 receptor in CHO-K1 cells; type: cell-based
T2 construct: expressed in transfected cells; host or cells: CHO-K1 cells
T2 sequence (P07550 whole entry): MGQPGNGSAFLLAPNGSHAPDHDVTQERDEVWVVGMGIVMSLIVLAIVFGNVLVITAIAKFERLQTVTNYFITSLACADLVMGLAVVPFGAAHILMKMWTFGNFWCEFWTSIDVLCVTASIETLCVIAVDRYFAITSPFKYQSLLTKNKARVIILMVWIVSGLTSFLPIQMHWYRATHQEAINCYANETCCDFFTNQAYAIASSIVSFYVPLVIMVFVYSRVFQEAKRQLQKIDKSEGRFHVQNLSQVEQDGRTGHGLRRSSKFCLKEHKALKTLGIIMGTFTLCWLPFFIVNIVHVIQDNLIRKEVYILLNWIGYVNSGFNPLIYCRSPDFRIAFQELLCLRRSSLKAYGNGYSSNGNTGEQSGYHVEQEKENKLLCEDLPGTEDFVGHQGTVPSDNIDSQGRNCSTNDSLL
Procedure: as §1

female Spague-Dawley rat [6] = assay: Effect on cardiovascular system in anesthetized rats; type: in vivo; conditions: cumulative, 30 minutes, relative to before administration
Procedure: (§2) This method was carried out in accordance with the literature [Experimental Methods in Pharmacology, 5th Revised Edition, p. 168, KYODO ISHO SHUPPAN CO., LTD.]
Each female Spague-Dawley rat was anesthetized with urethane, and a polyethylene cannula was inserted into the left common carotid artery and fixed therein, to measure the mean blood pressure and the heart rate. […] Data were represented as amounts of the changes (blood pressure: mmHg, heart rate: %) relative to values before the administration (number of cases: 3 to 8/group).

female Spague-Dawley rat [7] = assay: Effect on cardiovascular system in conscious rats; type: in vivo; conditions: 30 minutes, relative to before administration
Procedure: as §2
Each female Spague-Dawley rat was anesthetized with ether, and a polyethylene cannula was inserted into the left common carotid artery and fixed therein, followed by subcutaneously indwelling a cannula for drug administration. After recovery from anesthesia, the mean blood pressure and the heart rate were measured under free moving conditions.

female Spague-Dawley rat [8] = assay: Number of voiding episodes in rat natural voiding behavior test; type: in vivo; conditions: 3 hours after the administration
[9] = SK-N-MC cells, cAMP, with CGP-20712A 1 μM, 100 or 300 nM Isoproterenol = 100%, tested up to 10 μM, read-out: β3 (logarithm of the 50% reaction concentration) (converted)

| EC50 [1] | EC50 [3] | EC50 [4, 9] | SMILES | Number of Voiding Episodes (female Spague-Dawley rat [2]; 3 mg/kg subcutaneously) | Change in Blood Pressure (female Spague-Dawley rat [6]; 3 mg/kg subcutaneously) | EC50 [4] | other results |
| --- | --- | --- | --- | --- | --- | --- | --- |
| 0.0741 µM | 0.708 µM | 0.0331 µM | COc1cc(CN[C@@H](C)[C@H](O)c2ccc(O)c(NS(C)(=O)=O)c2)cc(OC)c1OC [Example 4, N-(2-Hydroxy-5-((1R,2S)-1-hydroxy-2-(3,4,5-trimethoxybenzylamino)propyl)phenyl)methane-sulfonamide] | 0.33 ± 0.19* |  |  |  |
| 0.229 µM | 0.562 µM | 0.0398 µM | COc1cc(CN[C@@H](C)[C@H](O)c2ccc(O)c(NS(C)(=O)=O)c2)cc(OC)c1 [Example 1, N-(5-((1R,2S)-2-(3,5-Dimethoxybenzylamino)-1-hydroxypropyl)-2-hydroxyphenyl)methane-sulfonamide] |  | −25.0 ± 3.6 mmHg |  | Number of Voiding Episodes (female Spague-Dawley rat [2]; 0.1 mg/kg subcutaneously): 1.06 ± 0.17; Number of Voiding Episodes (female Spague-Dawley rat [2]; 0.3 mg/kg subcutaneously): 0.83 ± 0.12*; Number of Voiding Episodes (female Spague-Dawley rat [2]; 1 mg/kg subcutaneously): 0.94 ± 0.17*; EC50 ([5]; CHO-K1 cells, cAMP, 100 or 300 nM Isoproterenol = 100%, tested up to 10 μM, n.d. = not detected at 10 μM, read-out: β2 (logarithm of the 50% reaction concentration) (converted)): 2.34 µM; Change in Blood Pressure (female Spague-Dawley rat [6]; 0.3 mg/kg subcutaneously): −25.2 ± 4.7 mmHg; Change in Heart Rate (female Spague-Dawley rat [6]; 0.3 mg/kg subcutaneously): 121.7 ± 4.2%; Change in Blood Pressure (female Spague-Dawley rat [6]; 1 mg/kg subcutaneously): −25.4 ± 2.3 mmHg; Change in Heart Rate (female Spague-Dawley rat [6]; 1 mg/kg subcutaneously): 126.4 ± 5.1%; Change in Heart Rate (female Spague-Dawley rat [6]; 3 mg/kg subcutaneously): 135.2 ± 8.4%; Change in Blood Pressure (female Spague-Dawley rat [7]; 0.3 mg/kg subcutaneously): −6.5 ± 5.5 mmHg; Change in Heart Rate (female Spague-Dawley rat [7]; 0.3 mg/kg subcutaneously): 107.7 ± 3.5% |
|  |  |  | Nc1nc(CC(=O)Nc2ccc(CCNC[C@H](O)c3ccccc3)cc2)cs1 [Compound 11, reference compound] | 0.67 ± 0.19 | −17.1 ± 3.5 mmHg |  | effect of decreasing the frequency of voiding episodes (female Spague-Dawley rat [8]): significant effect; Number of Voiding Episodes (female Spague-Dawley rat [2]; 3 mg/kg subcutaneously, listed as compound 11): did not show a significant effect; Change in Heart Rate (female Spague-Dawley rat [6]; 3 mg/kg subcutaneously, 3 mg/kg): 133.5 ± 8.2 %; Change in Blood Pressure (female Spague-Dawley rat [7]; 3 mg/kg subcutaneously): −22.5 ± 5.6 mmHg |
| 0.0363 µM |  | 0.0316 µM | C[C@H](NCc1cc(C(F)(F)F)cc(C(F)(F)F)c1)[C@H](O)c1ccc(O)c(NS(C)(=O)=O)c1 [Example 2, N-(5-((1R,2S)-2-(3,5-Bis(trifluoromethyl)benzylamino)-1-hydroxypropyl)-2-hydroxyphenyl)methanesulfonamide] | 0.45 ± 0.21* |  |  |  |

| SMILES | EC50 [1] | EC50 [3] | EC50 [4, 9] | Number of Voiding Episodes (female Spague-Dawley rat [2]; 3 mg/kg subcutaneously) | Change in Blood Pressure (female Spague-Dawley rat [6]; 3 mg/kg subcutaneously) | EC50 [4] | other results |
| --- | --- | --- | --- | --- | --- | --- | --- |
| Cc1cc(C)cc(CN[C@@H](C)[C@H](O)c2ccc(O)c(NS(C)(=O)=O)c2)c1 [Example 5, N-(5-((1R,2S)-2-(3,5-Dimethylbenzylamino)-1-hydroxypropyl)-2-hydroxyphenyl)methane-sulfonamide] | 0.151 µM | 0.575 µM |  | 0.50 ± 0.15* |  | 0.0724 µM |  |
| C[C@H](NCc1cc(Cl)cc(Cl)c1)[C@H](O)c1ccc(O)c(NS(C)(=O)=O)c1 [Example 3, N-(5-((1R,2S)-2-(3,5-Dichlorobenzylamino)-1-hydroxypropyl)-2-hydroxyphenyl)methane-sulfonamide] | 0.0891 µM |  |  | 0.50 ± 0.15* |  | 0.0219 µM | EC50 [5]: 1.07 µM |
